What all share (format): functional, cell-based
Series [1] concerns the target T1, Solute carrier organic anion transporter family member 1B3 (Homo sapiens, UniProt Q9NPD5).
T1 sequence (Q9NPD5 whole entry): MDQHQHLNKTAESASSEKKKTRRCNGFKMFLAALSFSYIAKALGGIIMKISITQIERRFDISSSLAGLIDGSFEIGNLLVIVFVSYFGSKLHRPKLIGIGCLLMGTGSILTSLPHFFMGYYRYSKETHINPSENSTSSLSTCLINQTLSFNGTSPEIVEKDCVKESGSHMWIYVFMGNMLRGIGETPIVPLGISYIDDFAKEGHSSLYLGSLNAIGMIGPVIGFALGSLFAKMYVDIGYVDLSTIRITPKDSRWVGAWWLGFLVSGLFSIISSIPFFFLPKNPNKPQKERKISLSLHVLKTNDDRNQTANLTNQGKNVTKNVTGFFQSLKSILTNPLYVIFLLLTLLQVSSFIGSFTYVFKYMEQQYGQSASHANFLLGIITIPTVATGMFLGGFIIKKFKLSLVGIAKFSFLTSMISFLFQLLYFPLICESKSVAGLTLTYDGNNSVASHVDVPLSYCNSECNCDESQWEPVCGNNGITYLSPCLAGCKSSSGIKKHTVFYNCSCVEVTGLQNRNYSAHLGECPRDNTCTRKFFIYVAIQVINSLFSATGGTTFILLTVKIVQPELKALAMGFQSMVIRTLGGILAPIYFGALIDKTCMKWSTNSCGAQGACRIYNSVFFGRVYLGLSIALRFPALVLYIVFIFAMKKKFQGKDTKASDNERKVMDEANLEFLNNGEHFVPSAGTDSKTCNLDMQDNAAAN
Kind of series: TP_TRANSPORTER: uptake of SN-38 at a concentration of 0.09uL/oocyte in Xenopus laevis oocytes.

In series [2] the target is T2, Solute carrier organic anion transporter family member 1B1 (Homo sapiens, UniProt Q9Y6L6).
T2 sequence (Q9Y6L6 whole entry): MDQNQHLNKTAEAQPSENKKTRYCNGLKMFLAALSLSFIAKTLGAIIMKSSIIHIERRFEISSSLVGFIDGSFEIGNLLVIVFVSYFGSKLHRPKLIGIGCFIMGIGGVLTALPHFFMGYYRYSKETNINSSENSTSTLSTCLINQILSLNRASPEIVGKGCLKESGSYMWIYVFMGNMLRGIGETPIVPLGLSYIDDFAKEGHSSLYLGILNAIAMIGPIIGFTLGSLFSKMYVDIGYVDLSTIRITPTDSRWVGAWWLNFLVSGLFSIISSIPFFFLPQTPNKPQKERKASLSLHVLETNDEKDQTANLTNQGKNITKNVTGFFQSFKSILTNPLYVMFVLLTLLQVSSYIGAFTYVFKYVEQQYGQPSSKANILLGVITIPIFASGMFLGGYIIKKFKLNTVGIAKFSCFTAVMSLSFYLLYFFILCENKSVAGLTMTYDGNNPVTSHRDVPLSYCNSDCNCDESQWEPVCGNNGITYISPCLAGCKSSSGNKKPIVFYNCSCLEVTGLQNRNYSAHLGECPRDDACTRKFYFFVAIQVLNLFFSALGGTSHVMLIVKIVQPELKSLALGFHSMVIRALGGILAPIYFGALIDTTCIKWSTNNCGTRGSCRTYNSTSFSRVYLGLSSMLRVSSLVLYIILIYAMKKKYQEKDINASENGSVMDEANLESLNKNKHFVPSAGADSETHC
As to the kind of experiment: TP_TRANSPORTER: uptake in OATP1B1-expressing HEK293 cell.

In series [3] the target is T2, Solute carrier organic anion transporter family member 1B1. As to the kind of experiment: TP_TRANSPORTER: uptake of SN-38 at a concentration of 0.16uL/oocyte in Xenopus laevis oocytes.
Series [4] shares this target. Kind of series: TP_TRANSPORTER: uptake in OATP1B1-expressing HEK293 cells.
In series [5] the target is T3, Solute carrier organic anion transporter family member 2B1 (Homo sapiens, UniProt O94956).
T3 sequence (O94956 whole entry): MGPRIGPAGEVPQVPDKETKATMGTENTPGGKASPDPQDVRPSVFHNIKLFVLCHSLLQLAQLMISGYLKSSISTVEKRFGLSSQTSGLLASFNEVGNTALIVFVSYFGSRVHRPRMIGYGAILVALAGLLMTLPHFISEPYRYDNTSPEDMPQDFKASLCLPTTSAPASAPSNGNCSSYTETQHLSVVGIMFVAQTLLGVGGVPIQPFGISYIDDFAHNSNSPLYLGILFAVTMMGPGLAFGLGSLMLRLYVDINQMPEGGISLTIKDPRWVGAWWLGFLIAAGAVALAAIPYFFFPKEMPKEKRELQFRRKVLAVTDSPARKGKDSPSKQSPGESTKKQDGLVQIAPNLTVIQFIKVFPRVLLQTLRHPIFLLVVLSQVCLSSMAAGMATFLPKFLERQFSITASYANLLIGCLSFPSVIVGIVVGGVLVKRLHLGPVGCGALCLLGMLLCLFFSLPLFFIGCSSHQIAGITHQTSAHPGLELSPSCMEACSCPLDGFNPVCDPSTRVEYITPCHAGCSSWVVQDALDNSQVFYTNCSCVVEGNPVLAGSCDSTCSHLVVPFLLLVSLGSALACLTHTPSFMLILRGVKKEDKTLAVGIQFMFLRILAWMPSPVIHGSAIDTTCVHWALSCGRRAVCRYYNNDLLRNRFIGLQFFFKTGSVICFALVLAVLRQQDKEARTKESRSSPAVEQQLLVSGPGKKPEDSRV
Kind of series: TP_TRANSPORTER: uptake of SN-38 at a concentration of 0.10uL/oocyte in Xenopus laevis oocytes.

The target of series [6] is T2, Solute carrier organic anion transporter family member 1B1. Kind of series: TP_TRANSPORTER: inhibition of E1S uptake (SN38 10 u M) in OATP1B1-expressing HEK293 cells. Also on record: scale not given: the % may be the effect or the level left. Conditions: hek293, 10 µM.
The target is the same in series [7]. As to the kind of experiment: TP_TRANSPORTER: inhibition of E1S uptake (SN38 G 10 u M) in OATP1B1-expressing HEK293 cells. Particulars: hek293, 10 µM.

These results are taken from ChEMBL document CHEMBL2073946, “Role of organic anion transporter OATP1B1 (OATP-C) in hepatic uptake of irinotecan and its active metabolite, 7-ethyl-10-hydroxycamptothecin: in vitro evidence and effect of single nucleotide polymorphisms” (Drug Metab Dispos, 2005).

Take `CCc1c2c(nc3ccc(O)cc13)-c1cc3c(c(=O)n1C2)COC(=O)[C@]3(O)CC` [7-ETHYL-10-HYDROXYCAMPTOTHECIN]: the Activity entry in series [1] is “is not a substrate [-]”; in series [2] it was “substrate [+]”; in series [3], “substrate [+]”; in series [4], “substrate []”; in series [5], “is not a substrate [-]”; in series [6] it was 50%.

Consider `CCc1c2c(nc3ccc(OC[C@@H]4O[C@H](C(=O)O)[C@@H](O)[C@H](O)[C@H]4O)cc13)-c1cc3c(c(=O)n1C2)COC(=O)[C@]3(O)CC`, for which the Activity result is “is not a substrate [-]” in series [2] and “is not an inhibitor [-]” in series [7].

Regarding `CCc1c2c(nc3ccc(OC(=O)N4CCC(N5CCCCC5)CC4)cc13)-c1cc3c(c(=O)n1C2)COC(=O)[C@]3(O)CC` [IRINOTECAN], the Activity entry in series [2] was “is not a substrate [-]”.
